Data as given in PubChem BioAssay (NCI).
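In this assay, cells in 96-well plates receive the compound at five concentrations for 48 hours. Endpoints are linearly interpolated between the surrounding concentrations. GI50: concentration for 50% inhibition of growth. TGI: concentration producing complete growth inhibition.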

Key:
Experiment in all cases: NCI tumour cell line growth inhibition, 48 h
786-0 renal = test system: 786-0 renal
A549 NSCLC = test system: A549 NSCLC
ACHN renal = test system: ACHN renal
CAKI-1 renal = test system: CAKI-1 renal
DLD-1 colon = test system: DLD-1 colon
DMS 273 small cell lung = test system: DMS 273 small cell lung
EKVX NSCLC = test system: EKVX NSCLC
HCC-2998 colon = test system: HCC-2998 colon
HCT-116 colon = test system: HCT-116 colon
HCT-15 colon = test system: HCT-15 colon
HOP-62 NSCLC = test system: HOP-62 NSCLC
HOP-92 NSCLC = test system: HOP-92 NSCLC
HT29 colon = test system: HT29 colon
IGROV1 ovarian = test system: IGROV1 ovarian
KM12 colon = test system: KM12 colon
LOX IMVI melanoma = test system: LOX IMVI melanoma
LXFL 529 NSCLC = test system: LXFL 529 NSCLC
M14 melanoma = test system: M14 melanoma
M19-MEL melanoma = test system: M19-MEL melanoma
NCI-H23 lung = test system: NCI-H23 lung
NCI-H460 lung = test system: NCI-H460 lung
NCI-H522 lung = test system: NCI-H522 lung
OVCAR-3 ovarian = test system: OVCAR-3 ovarian
OVCAR-4 ovarian = test system: OVCAR-4 ovarian
OVCAR-8 ovarian = test system: OVCAR-8 ovarian
SF-268 CNS = test system: SF-268 CNS
SF-295 CNS = test system: SF-295 CNS
SF-539 CNS = test system: SF-539 CNS
SK-MEL-2 melanoma = test system: SK-MEL-2 melanoma
SK-MEL-28 melanoma = test system: SK-MEL-28 melanoma
SK-MEL-5 melanoma = test system: SK-MEL-5 melanoma
SN12C renal = test system: SN12C renal
SNB-19 CNS = test system: SNB-19 CNS
SW-620 colon = test system: SW-620 colon
TK-10 renal = test system: TK-10 renal
U251 CNS = test system: U251 CNS
UACC-257 melanoma = test system: UACC-257 melanoma
UACC-62 melanoma = test system: UACC-62 melanoma
UO-31 renal = test system: UO-31 renal
CCRF-CEM leukemia = test system: CCRF-CEM leukemia
COLO 205 colon = test system: COLO 205 colon
DMS 114 small cell lung = test system: DMS 114 small cell lung
KM20L2 colon = test system: KM20L2 colon
MOLT-4 leukemia = test system: MOLT-4 leukemia
NCI-H226 lung = test system: NCI-H226 lung
OVCAR-5 ovarian = test system: OVCAR-5 ovarian
RPMI-8226 leukemia = test system: RPMI-8226 leukemia
RXF 393 renal = test system: RXF 393 renal
SK-OV-3 ovarian = test system: SK-OV-3 ovarian
SNB-75 CNS = test system: SNB-75 CNS
SNB-78 CNS = test system: SNB-78 CNS
SR leukemia = test system: SR leukemia

## CCN(CC)C(=O)c1ccc(C)c(N=NN(C)C)c1
786-0 renal
  TGI: > 100 µM
A549 NSCLC
  TGI: > 100 µM
ACHN renal
  TGI: > 100 µM
CAKI-1 renal
  TGI: > 100 µM
DLD-1 colon
  TGI: > 100 µM
DMS 273 small cell lung
  TGI: > 100 µM
EKVX NSCLC
  TGI: > 100 µM
HCC-2998 colon
  TGI: > 100 µM
HCT-116 colon
  TGI: > 100 µM
HCT-15 colon
  TGI: > 100 µM
HOP-62 NSCLC
  TGI: > 100 µM
HOP-92 NSCLC
  TGI: > 100 µM
HT29 colon
  TGI: > 100 µM
IGROV1 ovarian
  TGI: > 100 µM
KM12 colon
  TGI: > 100 µM
LOX IMVI melanoma
  TGI: > 100 µM
LXFL 529 NSCLC
  TGI: > 100 µM
M14 melanoma
  TGI: > 100 µM
M19-MEL melanoma
  TGI: > 100 µM
NCI-H23 lung
  TGI: > 100 µM
NCI-H460 lung
  TGI: > 100 µM
NCI-H522 lung
  TGI: > 100 µM
OVCAR-3 ovarian
  TGI: > 100 µM
OVCAR-4 ovarian
  TGI: > 100 µM
OVCAR-8 ovarian
  TGI: > 100 µM
SF-268 CNS
  TGI: > 100 µM
SF-295 CNS
  TGI: > 100 µM
SF-539 CNS
  TGI: > 100 µM
SK-MEL-2 melanoma
  TGI: > 100 µM
SK-MEL-28 melanoma
  TGI: > 100 µM
SK-MEL-5 melanoma
  TGI: > 100 µM
SN12C renal
  TGI: > 100 µM
SNB-19 CNS
  TGI: > 100 µM
SW-620 colon
  TGI: > 100 µM
TK-10 renal
  TGI: > 100 µM
U251 CNS
  TGI: > 100 µM
UACC-257 melanoma
  TGI: > 100 µM
UACC-62 melanoma
  TGI: > 100 µM
UO-31 renal
  TGI: > 100 µM

## CC(=O)[O-].CC(=O)[O-].CC(=O)[O-].CC(=O)[O-].CO.CO.CO.[Rh+2].[Rh+2].c1ccc(-c2ccccn2)nc1
786-0 renal
  GI50: > 100 µM
  TGI: > 100 µM
A549 NSCLC
  GI50: > 100 µM
  TGI: > 100 µM
ACHN renal
  GI50: > 100 µM
  TGI: > 100 µM
CCRF-CEM leukemia
  GI50: 44.6 µM
  TGI: > 100 µM
COLO 205 colon
  GI50: > 100 µM
  TGI: > 100 µM
DLD-1 colon
  GI50: > 100 µM
  TGI: > 100 µM
DMS 114 small cell lung
  GI50: 62.2 µM
  TGI: > 100 µM
DMS 273 small cell lung
  GI50: > 100 µM
  TGI: > 100 µM
EKVX NSCLC
  GI50: > 100 µM
  TGI: > 100 µM
HCC-2998 colon
  GI50: > 100 µM
  TGI: > 100 µM
HCT-116 colon
  GI50: > 100 µM
  TGI: > 100 µM
HCT-15 colon
  GI50: > 100 µM
  TGI: > 100 µM
HOP-62 NSCLC
  GI50: > 100 µM
  TGI: > 100 µM
HT29 colon
  GI50: > 100 µM
  TGI: > 100 µM
IGROV1 ovarian
  GI50: > 100 µM
  TGI: > 100 µM
KM12 colon
  GI50: > 100 µM
  TGI: > 100 µM
KM20L2 colon
  GI50: > 100 µM
  TGI: > 100 µM
LOX IMVI melanoma
  GI50: > 100 µM
  TGI: > 100 µM
LXFL 529 NSCLC
  GI50: 55.6 µM
  TGI: > 100 µM
M14 melanoma
  GI50: > 100 µM
  TGI: > 100 µM
M19-MEL melanoma
  GI50: > 100 µM
  TGI: > 100 µM
MOLT-4 leukemia
  GI50: > 100 µM
  TGI: > 100 µM
NCI-H226 lung
  GI50: > 100 µM
  TGI: > 100 µM
NCI-H23 lung
  GI50: > 100 µM
  TGI: > 100 µM
NCI-H460 lung
  GI50: > 100 µM
  TGI: > 100 µM
OVCAR-3 ovarian
  GI50: > 100 µM
  TGI: > 100 µM
OVCAR-4 ovarian
  GI50: > 100 µM
  TGI: > 100 µM
OVCAR-5 ovarian
  GI50: > 100 µM
  TGI: > 100 µM
OVCAR-8 ovarian
  GI50: > 100 µM
  TGI: > 100 µM
RPMI-8226 leukemia
  GI50: > 100 µM
  TGI: > 100 µM
RXF 393 renal
  GI50: > 100 µM
  TGI: > 100 µM
SF-268 CNS
  GI50: > 100 µM
  TGI: > 100 µM
SF-295 CNS
  GI50: > 100 µM
  TGI: > 100 µM
SF-539 CNS
  GI50: > 100 µM
  TGI: > 100 µM
SK-MEL-28 melanoma
  GI50: > 100 µM
  TGI: > 100 µM
SK-MEL-5 melanoma
  GI50: > 100 µM
  TGI: > 100 µM
SK-OV-3 ovarian
  GI50: > 100 µM
  TGI: > 100 µM
SN12C renal
  GI50: > 100 µM
  TGI: > 100 µM
SNB-19 CNS
  GI50: > 100 µM
  TGI: > 100 µM
SNB-75 CNS
  GI50: > 100 µM
  TGI: > 100 µM
SNB-78 CNS
  GI50: > 100 µM
  TGI: > 100 µM
SR leukemia
  GI50: > 100 µM
  TGI: > 100 µM
SW-620 colon
  GI50: > 100 µM
  TGI: > 100 µM
TK-10 renal
  GI50: > 100 µM
  TGI: > 100 µM
U251 CNS
  GI50: > 100 µM
  TGI: > 100 µM
UACC-257 melanoma
  GI50: > 100 µM
  TGI: > 100 µM
UACC-62 melanoma
  GI50: > 100 µM
  TGI: > 100 µM
UO-31 renal
  GI50: > 100 µM
  TGI: > 100 µM
